Laboratory results as given in patent US7303762B2, “Absorption enhancers” (Axcess Limited, priority 2000, dated 2007).

Assays:
Caco-2 cells = experiment: Trans-epithelial electrical resistance (TEER) across Caco-2 mono-layer; assay type: cell-based, human; conditions: four replicates
Protocol: Caco-2 cells (a cell-line derived from human colon adenocarcinoma) were grown as a confluent mono-layer on the surface of a porous membrane (pore size 0.4 μm, surface area 0.33 cm^2) separating two aqueous compartments, the upper compartment filled with 200 μl of culture medium, and the lower compartment containing 600 μl. Electrical resistance across the mono-layer was measured using an epithelial voltohmeter connected to electrodes inserted into the medium on either side of the mono-layer in the upper and lower compartments. This trans-epithelial electrical resistance (TEER) was measured immediately before, and 15 minutes after the addition of aromatic alcohols to the upper compartment (see Table 6 below). Use of the compounds diluted two to four-fold below those concentrations shown eliminates the falls in electrical resistance observed. Fall in TEER is considered indicative of the appearance of aqueous channels between cells, and is evidence that the mechanism of action of the aromatic alcohols tested, in exerting their absorption enhancing activity, is via opening or loosening of tight junctions between intestinal cells.

[1] = Plasma glucose after intra-jejunal administration of insulin capsules to conscious pigs; assay type: in vivo; conditions: one capsule
Protocol: Formulations prepared as described in examples 1 and 2 were administered (one capsule per animal) directly to the intestine of conscious pigs (40 to 60 kg) via an in-dwelling stoma implanted surgically in the jejunum. Before and after administration, at the intervals shown, blood samples were taken for analysis of blood glucose levels. As a control, capsules containing 200 iu of unformulated insulin were also administered intra-jejunally.

Molecule | TEER 15 minutes after (Caco-2 cells; 15 minutes after addition to upper compartment, concentration 40 μl/ml) | TEER Before addition (Caco-2 cells; immediately before addition of agent) | Changes in plasma glucose ([1]; 15 minutes, + s.d.) | Changes in plasma glucose ([1]; 30 minutes, + s.d.) | Changes in plasma glucose ([1]; 45 minutes, + s.d.) | Changes in plasma glucose ([1]; 60 minutes, + s.d.) | Changes in plasma glucose ([1]; 90 minutes, + s.d.) | Changes in plasma glucose ([1]; 120 minutes, + s.d.) | Changes in plasma glucose ([1]; 180 minutes, + s.d.) | Changes in plasma glucose ([1]; 240 minutes, + s.d.) | Changes in plasma glucose ([1]; time −10 minutes)
OCc1ccccc1 [Benzyl alcohol] | −1.6 ± 3.2 ohm · cm^2 | 447.2 ± 76.9 ohm · cm^2 | – | – | – | – | – | – | – | – | –
Control (unformulated insulin): capsules containing 200 iu of unformulated insulin administered intra-jejunally | – | – | 0.01 + 0.24 mmol/l | −0.05 + 0.21 mmol/l | −0.06 + 0.17 mmol/l | −0.32 + 0.23 mmol/l | −0.17 + 0.21 mmol/l | −0.22 + 0.32 mmol/l | −0.13 + 0.21 mmol/l | −0.34 + 0.32 mmol/l | 0.00 mmol/L
